The text below walks through data of patent publication US20260070945A1, “MACROCYCLIC IMMUNOMODULATORS” (Bristol-Myers Squibb Company, priority 2022, published 2026).

The structures appear in SMILES notation. Where a SMILES comes first, the peptide text is derived from it. Bridges are numbered along the chain shown (N, C = ends). [ ]: non-standard residue; d: D form. The star is where a group is joined. Tyr(3,5-F2) = N[C@@H](Cc1cc(F)c(O)c(F)c1)C(=O)O; Phe(4-COOH) = N[C@@H](Cc1ccc(C(=O)O)cc1)C(=O)O; Tyr(3-Cl) = N[C@@H](Cc1ccc(O)c(Cl)c1)C(=O)O; Bip = N[C@@H](Cc1ccc(-c2ccccc2)cc1)C(=O)O; Phe(4-CN) = N#Cc1ccc(C[C@H](N)C(=O)O)cc1; Phe(3-Me) = Cc1cccc(C[C@H](N)C(=O)O)c1; Phe(2-F) = N[C@@H](Cc1ccccc1F)C(=O)O; Val(3-OH) = CC(C)(O)[C@H](N)C(=O)O; 4Pal = N[C@@H](Cc1ccncc1)C(=O)O; 2Thi = N[C@@H](Cc1cccs1)C(=O)O; Cha = N[C@@H](CC1CCCCC1)C(=O)O; Gly(cPr) = N[C@H](C(=O)O)C1CC1; Phg = N[C@H](C(=O)O)c1ccccc1; Carboxymethyl = O=C(O)C*; NMeA = CN[C@@H](C)C(=O)O; Aun = NCCCCCCCCCCC(=O)O; Dab = NCC[C@H](N)C(=O)O

The target of the test is T1, PD-1/PD-L1 interaction (PE-labeled human PD-L1-Ig binding to Jurkat cell line over-expressing human PD-1) (Homo sapiens, UniProt Q15116).
T1 construct: expressed in transfected cells; host or cells: Jurkat
T1 sequence (Q15116 25-288): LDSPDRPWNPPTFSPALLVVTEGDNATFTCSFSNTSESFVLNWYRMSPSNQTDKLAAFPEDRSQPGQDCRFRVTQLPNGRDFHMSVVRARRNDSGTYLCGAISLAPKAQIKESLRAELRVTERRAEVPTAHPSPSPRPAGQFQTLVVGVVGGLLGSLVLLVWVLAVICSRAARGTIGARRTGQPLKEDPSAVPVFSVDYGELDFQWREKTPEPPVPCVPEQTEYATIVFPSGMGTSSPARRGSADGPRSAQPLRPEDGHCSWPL
The experiment in a line: Jurkat-PD-1 Cell Binding High-Content Screening Assay (CBA). As to conditions: Jurkat-hPD-1 cells, PE-labeled PD-L1-Ig 20 nM final; read-out: Jurkat HPD1 PDL1 IC50. The gist of the method:
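Cells 8×10^3/well, DMEM + 10% FCS; cpd 2 h, 37 °C; PE–PD-L1-Ig 20 nM final, 1 h; PFA fix + Hoechst 33342, 3× dPBS wash; high-content imager.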
Take `Cc1cccc(C[C@@H]2NC(=O)[C@H](CC(=O)O)NC(=O)[C@H](Cc3ccc(C(=O)O)cc3)NC(=O)[C@H](Cc3cccs3)NC(=O)CSC[C@@H](C(=O)N[C@@H](CCN)C(=O)NCCCCCCCCCCC(=O)O)NC(=O)[C@H](CO)NC(=O)[C@H](C(C)(C)O)NC(=O)[C@H](CC3CCCCC3)NC(=O)[C@H](CCN)NC(=O)[C@@H](CC(C)C)NC(=O)[C@H](C)N(C)C(=O)[C@H](Cc3ccc(OCC(=O)O)cc3)NC(=O)[C@H](Cc3ccc(-c4ccccc4)cc3)NC(=O)[C@H](Cc3ccc(OCC(=O)O)cc3)NC2=O)c1` [Example 1284] ({CH2CO}-[2Thi][Phe(4-COOH)]D[Phe(3-Me)]Y(Carboxymethyl)[Bip]Y(Carboxymethyl)[NMeA][dL][Dab][Cha][Val(3-OH)]SC[Dab][Aun]-OH; thioether N-14): the half-maximal inhibitory concentration (IC50) turned out to be 16.9 nM. As for `Cc1cccc(C[C@@H]2NC(=O)[C@H](CC(=O)O)NC(=O)[C@H](Cc3ccc(OCC(=O)O)cc3)NC(=O)[C@H](Cc3cccs3)NC(=O)CSC[C@@H](C(=O)N[C@@H](CCN)C(=O)NCCCCCCCCCCC(=O)O)NC(=O)[C@H](CO)NC(=O)[C@H](C(C)(C)O)NC(=O)[C@H](CC3CCCCC3)NC(=O)[C@H](CCN)NC(=O)[C@@H](CC(C)C)NC(=O)[C@H](C)N(C)C(=O)[C@H](Cc3ccc(OCC(=O)O)cc3)NC(=O)[C@H](Cc3ccc(-c4ccccc4)cc3)NC(=O)[C@H](Cc3ccc(OCC(=O)O)cc3)NC2=O)c1` [Example 1285] ({CH2CO}-[2Thi]Y(Carboxymethyl)D[Phe(3-Me)]Y(Carboxymethyl)[Bip]Y(Carboxymethyl)[NMeA][dL][Dab][Cha][Val(3-OH)]SC[Dab][Aun]-OH; thioether N-14), the figure is 29.2 nM. As to `COc1ccc(C[C@@H]2NC(=O)CSC[C@@H](C(=O)N[C@@H](CCN)C(=O)NCCCCCCCCCCC(=O)O)NC(=O)[C@H](CO)NC(=O)[C@H](C(C)(C)O)NC(=O)[C@H](CC3CCCCC3)NC(=O)[C@H](CCN)NC(=O)[C@@H](CC(C)C)NC(=O)[C@H](C)N(C)C(=O)[C@H](Cc3ccc(OCC(=O)O)cc3)NC(=O)[C@H](Cc3ccc(-c4ccccc4)cc3)NC(=O)[C@H](Cc3ccc(OCC(=O)O)cc3)NC(=O)[C@H](Cc3cccc(C)c3)NC(=O)[C@H](CC(=O)O)NC(=O)[C@H](Cc3ccc(OCC(=O)O)cc3)NC2=O)cc1` [Example 1286] ({CH2CO}-Y(Me)Y(Carboxymethyl)D[Phe(3-Me)]Y(Carboxymethyl)[Bip]Y(Carboxymethyl)[NMeA][dL][Dab][Cha][Val(3-OH)]SC[Dab][Aun]-OH; thioether N-14), the IC50 was 19.2 nM.

With `Cc1cccc(C[C@@H]2NC(=O)[C@H](CC(=O)O)NC(=O)[C@H](Cc3ccc(OCC(=O)O)cc3)NC(=O)[C@H](Cc3ccncc3)NC(=O)CSC[C@@H](C(=O)N[C@@H](CCN)C(=O)NCCCCCCCCCCC(=O)O)NC(=O)[C@H](CO)NC(=O)[C@H](C(C)(C)O)NC(=O)[C@H](CC3CCCCC3)NC(=O)[C@H](CCN)NC(=O)[C@@H](CC(C)C)NC(=O)[C@H](C)N(C)C(=O)[C@H](Cc3ccc(OCC(=O)O)cc3)NC(=O)[C@H](Cc3ccc(-c4ccccc4)cc3)NC(=O)[C@H](Cc3ccc(OCC(=O)O)cc3)NC2=O)c1` [Example 1287] ({CH2CO}-[4Pal]Y(Carboxymethyl)D[Phe(3-Me)]Y(Carboxymethyl)[Bip]Y(Carboxymethyl)[NMeA][dL][Dab][Cha][Val(3-OH)]SC[Dab][Aun]-OH; thioether N-14), the IC50 is 9 nM. On to `Cc1cccc(C[C@@H]2NC(=O)[C@H](CC(=O)O)NC(=O)[C@H](Cc3ccc(OCC(=O)O)cc3)NC(=O)[C@H](Cc3ccc(C#N)cc3)NC(=O)CSC[C@@H](C(=O)N[C@@H](CCN)C(=O)NCCCCCCCCCCC(=O)O)NC(=O)[C@H](CO)NC(=O)[C@H](C(C)(C)O)NC(=O)[C@H](CC3CCCCC3)NC(=O)[C@H](CCN)NC(=O)[C@@H](CC(C)C)NC(=O)[C@H](C)N(C)C(=O)[C@H](Cc3ccc(OCC(=O)O)cc3)NC(=O)[C@H](Cc3ccc(-c4ccccc4)cc3)NC(=O)[C@H](Cc3ccc(OCC(=O)O)cc3)NC2=O)c1` [Example 1288] ({CH2CO}-[Phe(4-CN)]Y(Carboxymethyl)D[Phe(3-Me)]Y(Carboxymethyl)[Bip]Y(Carboxymethyl)[NMeA][dL][Dab][Cha][Val(3-OH)]SC[Dab][Aun]-OH; thioether N-14), for which the IC50 worked out at 14.7 nM.

On to `Cc1cccc(C[C@@H]2NC(=O)[C@H](CC(=O)O)NC(=O)[C@H](Cc3ccc(C(=O)O)cc3)NC(=O)[C@H](CCN)NC(=O)CSC[C@@H](C(=O)N[C@@H](CCN)C(=O)NCCCCCCCCCCC(=O)O)NC(=O)[C@H](CO)NC(=O)[C@H](C(C)(C)O)NC(=O)[C@H](CC3CCCCC3)NC(=O)[C@H](CCN)NC(=O)[C@@H](CC(C)C)NC(=O)[C@H](C)N(C)C(=O)[C@H](Cc3ccc(OCC(=O)O)cc3)NC(=O)[C@H](Cc3ccc(-c4ccccc4)cc3)NC(=O)[C@H](Cc3ccccc3F)NC2=O)c1` [Example 1289] ({CH2CO}-[Dab][Phe(4-COOH)]D[Phe(3-Me)][Phe(2-F)][Bip]Y(Carboxymethyl)[NMeA][dL][Dab][Cha][Val(3-OH)]SC[Dab][Aun]-OH; thioether N-14), for which the IC50 is 32.4 nM.

Consider `Cc1cccc(C[C@@H]2NC(=O)[C@H](CC(=O)O)NC(=O)[C@H](Cc3ccc(C(=O)O)cc3)NC(=O)[C@H](CCN)NC(=O)CSC[C@@H](C(=O)N[C@@H](CCN)C(=O)NCCCCCCCCCCC(=O)O)NC(=O)[C@H](CO)NC(=O)[C@H](C(C)(C)O)NC(=O)[C@H](CC3CCCCC3)NC(=O)[C@H](CCN)NC(=O)[C@@H](CC(C)C)NC(=O)[C@H](C)N(C)C(=O)[C@H](Cc3ccc(OCC(=O)O)cc3)NC(=O)[C@H](Cc3ccc(-c4ccccc4)cc3)NC(=O)[C@H](Cc3cc(F)c(O)c(F)c3)NC2=O)c1` [Example 1290] ({CH2CO}-[Dab][Phe(4-COOH)]D[Phe(3-Me)][Tyr(3,5-F2)][Bip]Y(Carboxymethyl)[NMeA][dL][Dab][Cha][Val(3-OH)]SC[Dab][Aun]-OH; thioether N-14), for which the IC50 came to 20.1 nM. As for `COc1ccc(C[C@@H]2NC(=O)[C@H](Cc3cccc(C)c3)NC(=O)[C@H](CC(=O)O)NC(=O)[C@H](Cc3ccc(C(=O)O)cc3)NC(=O)[C@H](CCN)NC(=O)CSC[C@@H](C(=O)N[C@@H](CCN)C(=O)NCCCCCCCCCCC(=O)O)NC(=O)[C@H](CO)NC(=O)[C@H](C(C)(C)O)NC(=O)[C@H](CC3CCCCC3)NC(=O)[C@H](CCN)NC(=O)[C@@H](CC(C)C)NC(=O)[C@H](C)N(C)C(=O)[C@H](Cc3ccc(OCC(=O)O)cc3)NC(=O)[C@H](Cc3ccc(-c4ccccc4)cc3)NC2=O)cc1` [Example 1291] ({CH2CO}-[Dab][Phe(4-COOH)]D[Phe(3-Me)]Y(Me)[Bip]Y(Carboxymethyl)[NMeA][dL][Dab][Cha][Val(3-OH)]SC[Dab][Aun]-OH; thioether N-14), the figure is 22.7 nM; as for `Cc1cccc(C[C@@H]2NC(=O)[C@H](CC(=O)O)NC(=O)[C@H](Cc3ccc(C(=O)O)cc3)NC(=O)[C@H](CCN)NC(=O)CSC[C@@H](C(=O)N[C@@H](CCN)C(=O)NCCCCCCCCCCC(=O)O)NC(=O)[C@H](CO)NC(=O)[C@H](C(C)(C)O)NC(=O)[C@H](CC3CCCCC3)NC(=O)[C@H](CCN)NC(=O)[C@@H](CC(C)C)NC(=O)[C@H](C)N(C)C(=O)[C@H](Cc3ccc(OCC(=O)O)cc3)NC(=O)[C@H](Cc3ccc(-c4ccccc4)cc3)NC(=O)[C@H](c3ccccc3)NC2=O)c1` [Example 1292] ({CH2CO}-[Dab][Phe(4-COOH)]D[Phe(3-Me)][Phg][Bip]Y(Carboxymethyl)[NMeA][dL][Dab][Cha][Val(3-OH)]SC[Dab][Aun]-OH; thioether N-14), 96.9 nM; as for `Cc1cccc(C[C@@H]2NC(=O)[C@H](CC(=O)O)NC(=O)[C@H](Cc3ccc(C(=O)O)cc3)NC(=O)[C@H](CCN)NC(=O)CSC[C@@H](C(=O)N[C@@H](CCN)C(=O)NCCCCCCCCCCC(=O)O)NC(=O)[C@H](CO)NC(=O)[C@H](C(C)(C)O)NC(=O)[C@H](CC3CCCCC3)NC(=O)[C@H](CCN)NC(=O)[C@@H](CC(C)C)NC(=O)[C@H](C)N(C)C(=O)[C@H](Cc3ccc(OCC(=O)O)cc3)NC(=O)[C@H](Cc3ccc(-c4ccccc4)cc3)NC(=O)[C@H](Cc3ccc(O)c(Cl)c3)NC2=O)c1` [Example 1293] ({CH2CO}-[Dab][Phe(4-COOH)]D[Phe(3-Me)][Tyr(3-Cl)][Bip]Y(Carboxymethyl)[NMeA][dL][Dab][Cha][Val(3-OH)]SC[Dab][Aun]-OH; thioether N-14), 35.8 nM. Consider `Cc1cccc(C[C@@H]2NC(=O)[C@H](CC(=O)O)NC(=O)[C@H](Cc3ccc(C(=O)O)cc3)NC(=O)[C@H](CCN)NC(=O)CSC[C@@H](C(=O)N[C@@H](CCN)C(=O)NCCCCCCCCCCC(=O)O)NC(=O)[C@H](CO)NC(=O)[C@H](C(C)(C)O)NC(=O)[C@H](CC3CCCCC3)NC(=O)[C@H](CCN)NC(=O)[C@@H](CC(C)C)NC(=O)[C@H](C)N(C)C(=O)[C@H](Cc3ccc(OCC(=O)O)cc3)NC(=O)[C@H](Cc3ccc(-c4ccccc4)cc3)NC(=O)[C@H](Cc3cccs3)NC2=O)c1` [Example 1294] ({CH2CO}-[Dab][Phe(4-COOH)]D[Phe(3-Me)][2Thi][Bip]Y(Carboxymethyl)[NMeA][dL][Dab][Cha][Val(3-OH)]SC[Dab][Aun]-OH; thioether N-14), for which the IC50 came to 11.6 nM. With `Cc1cccc(C[C@@H]2NC(=O)[C@H](CC(=O)O)NC(=O)[C@H](Cc3ccc(C(=O)O)cc3)NC(=O)[C@H](CCN)NC(=O)CSC[C@@H](C(=O)N[C@@H](CCN)C(=O)NCCCCCCCCCCC(=O)O)NC(=O)[C@H](CO)NC(=O)[C@H](C(C)(C)O)NC(=O)[C@H](CC3CCCCC3)NC(=O)[C@H](CCN)NC(=O)[C@@H](CC(C)C)NC(=O)[C@H](C)N(C)C(=O)[C@H](Cc3ccc(OCC(=O)O)cc3)NC(=O)[C@H](Cc3ccc(-c4ccccc4)cc3)NC(=O)[C@H](C3CC3)NC2=O)c1` [Example 1295] ({CH2CO}-[Dab][Phe(4-COOH)]D[Phe(3-Me)][Gly(cPr)][Bip]Y(Carboxymethyl)[NMeA][dL][Dab][Cha][Val(3-OH)]SC[Dab][Aun]-OH; thioether N-14), the IC50 worked out at 11.2 nM.
